Assay results taken from ChEMBL document CHEMBL1127777, “Indolocarbazole nitrogens linked by three-atom bridges: a potent new class of PKC inhibitors” (Bioorg Med Chem Lett, 1994).

Target: Protein kinase C (PKC)
Assay: In vitro inhibition of protein kinase C from rat brain.

| SMILES | IC50 [nM] |
| --- | --- |
| O=C1NC(=O)c2c1c1c3ccccc3n3c1c1c2c2ccccc2n1CN(CCO)C3 | 17 |
| O=C1NCc2c1c1c3ccccc3n3c1c1c2c2ccccc2n1CN(CCO)C3 | 15 |
| O=C1NCc2c1c1c3ccccc3n3c1c1c2c2ccccc2n1CSC3 | 7 |
| O=C1NC(=O)c2c1c1c3ccccc3n3c1c1c2c2ccccc2n1CNC3 | 145 |
| O=C1NC(=O)c2c1c1c3ccccc3n3c1c1c2c2ccccc2n1CN(O)C3 | 90 |
| O=C1NC(=O)c2c1c1c3ccccc3n3c1c1c2c2ccccc2n1C[S+]([O-])C3 | 19 |
| O=C1NCc2c1c1c3ccccc3n3c1c1c2c2ccccc2n1CS(=O)(=O)C3 | 5 |
| CN1Cn2c3ccccc3c3c4c(c5c6ccccc6n(c5c32)C1)C(=O)NC4=O | 86 |
| CCOC(=O)C1n2c3ccccc3c3c4c(c5c6ccccc6n(c5c32)CS1(=O)=O)C(=O)NC4=O (stereo not drawn) | 20 |
| NC1=NC(=O)c2c1c1c3ccccc3n3c1c1c2c2ccccc2n1CSC3 | 24 |
| O=C1NC(=O)c2c1c1c3ccccc3n3c1c1c2c2ccccc2n1CS(=O)(=O)C3 | 2 |
| O=C1NC(=O)c2c1c1c3ccccc3n3c1c1c2c2ccccc2n1C1COCC3S1(=O)=O | 20 |
| O=C1NC(=O)c2c1c1c3ccccc3n3c1c1c2c2ccccc2n1CSC3 | 14 |
| NC1=NC(=O)c2c1c1c3ccccc3n3c1c1c2c2ccccc2n1COC3 | 24 |
| O=C1NC(=O)c2c1c1c3ccccc3n3c1c1c2c2ccccc2n1COC3 | 11 |
| O=C1NC(=O)c2c1c1c3ccccc3n3c1c1c2c2ccccc2n1CN(C(CO)CO)C3 | 10 |
| CC1n2c3ccccc3c3c4c(c5c6ccccc6n(c5c32)C(C)S1(=O)=O)C(=O)NC4=O (stereo in doubt) | 2.4 |
| CC1n2c3ccccc3c3c4c(c5c6ccccc6n(c5c32)C(C)S1(=O)=O)C(=O)NC4=O (stereo in doubt; 16 (dl)) | 120 |
